pIC50: −log10 of the molar value.
Biological target: BRD9 (Homo sapiens (Human), UniProt Q9H8M2)
Assay: BRD9 AlphaLisa Binding Assay
Experimental: After 20 minutes incubation at room temperature AlphaLisa Streptavidin Acceptor Beads (Perkin-A[…]) and AlphaLisa Nickel donor beads (Perkin AS 10 ID) were added to a final concentration of 15 ug/mL each.

BRD9, sequence (Q9H8M2 134-239 limits assumed): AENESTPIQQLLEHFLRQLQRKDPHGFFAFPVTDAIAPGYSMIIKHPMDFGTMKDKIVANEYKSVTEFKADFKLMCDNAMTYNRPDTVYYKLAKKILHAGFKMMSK

SMILES	pIC50
C/C=C/Cn1cc(-c2ccc(C(C)(C)O)cc2OC)c2cc(C)[nH]c2c1=O [Example 107, 6-[(E)-but-2-enyl]-4-[4-(1-hydroxy-1-methyl-ethyl)-2-methoxy-phenyl]-2-methyl-1H-pyrrolo[2,3-c]pyridin-7-one]	7.00
COc1ccc(C(=O)N(C)C)cc1-c1cn(CCC2CC2)c(=O)c2[nH]c(C)cc12 [Example 88, 3-[6-(2-cyclopropylethyl)-2-methyl-7-oxo-1H-pyrrolo[2,3-c]pyridin-4-yl]-4-methoxy-N,N-dimethyl-benzamide]	6.52
C/C=C/Cn1cc(-c2ncc(C(=O)N3CCN(C)CC3)cc2OC)c2cc(C)[nH]c2c1=O [Example 110, 6-[(E)-but-2-enyl]-4-[3-methoxy-5-(4-methylpiperazine-1-carbonyl)-2-pyridyl]-2-methyl-1H-pyrrolo[2,3-c]pyridin-7-one]	7.41
C/C=C/Cn1cc(-c2cc(C(=O)NCc3cnccn3)ccc2OC)c2cc(C)[nH]c2c1=O [Example 109, 3-[6-[(E)-but-2-enyl]-2-methyl-7-oxo-1H-pyrrolo[2,3-c]pyridin-4-yl]-4-methoxy-N-(pyrazin-2-ylmethyl)benzamide]	8.22
CC(C)CCn1cc(-c2cccc(C(=O)N(C)C)c2)c2cc[nH]c2c1=O [Example 10, 3-(6-isopentyl-7-oxo-1H-pyrrolo[2,3-c]pyridin-4-yl)-N,N-dimethyl-benzamide]	6.49
C/C=C/Cn1cc(-c2ccc(C(=O)N3CCOCC3)c(OC(C)C)c2)c2cc(C)[nH]c2c1=O [Example 114, 6-[(E)-but-2-enyl]-4-[3-isopropoxy-4-(morpholine-4-carbonyl)phenyl]-2-methyl-1H-pyrrolo[2,3-c]pyridin-7-one]	8.52
CCCCn1cc(-c2ccc(C(C)(C)O)cc2)c2cc[nH]c2c1=O [Example 82, 6-butyl-4-[4-(1-hydroxy-1-methyl-ethyl)phenyl]-1H-pyrrolo[2,3-c]pyridin-7-one]	7.37
C/C=C/Cn1cc(-c2cnc(C(=O)N3CCOCC3)c(Cl)c2)c2cc(C)[nH]c2c1=O [Example 98, 6-[(E)-but-2-enyl]-4-[5-chloro-6-(morpholine-4-carbonyl)-3-pyridyl]-2-methyl-1H-pyrrolo[2,3-c]pyridin-7-one]	7.49
C/C=C/Cn1cc(-c2cc(Cl)c(C(=O)N3CCOCC3)cn2)c2cc(C)[nH]c2c1=O [Example 104, 6-[(E)-but-2-enyl]-4-[4-chloro-5-(morpholine-4-carbonyl)-2-pyridyl]-2-methyl-1H-pyrrolo[2,3-c]pyridin-7-one]	7.66
C/C=C/Cn1cc(-c2ccc(C(=O)N3CCOCC3)c(F)c2F)c2cc(C)[nH]c2c1=O [Example 93, 6-[(E)-but-2-enyl]-4-[2,3-difluoro-4-(morpholine-4-carbonyl)phenyl]-2-methyl-1H-pyrrolo[2,3-c]pyridin-7-one]	7.47
C/C=C/Cn1cc(-c2ccc(NS(C)(=O)=O)cc2)c2cc[nH]c2c1=O [Example 34, N-[4-[6-[(E)-but-2-enyl]-7-oxo-1H-pyrrolo[2,3-c]pyridin-4-yl]phenyl]methanesulfonamide]	7.66
CCCCn1cc(-c2ncc(C(=O)N3CCN(C)CC3)cc2OC)c2cc(C)[nH]c2c1=O [Example 122, 6-butyl-4-[3-methoxy-5-(4-methylpiperazine-1-carbonyl)-2-pyridyl]-2-methyl-1H-pyrrolo[2,3-c]pyridin-7-one]	6.74
C=CCn1cc(-c2ccc(C(=O)N3CCOCC3)c(Cl)c2)c2cc(C)[nH]c2c1=O [Example 101, 6-allyl-4-[3-chloro-4-(morpholine-4-carbonyl)phenyl]-2-methyl-1H-pyrrolo[2,3-c]pyridin-7-one]	7.92
C/C=C/Cn1cc(-c2ccc(C(=O)N3CCOCC3)c(OCC3CC3)c2)c2cc(C)[nH]c2c1=O [Example 115, 6-[(E)-but-2-enyl]-4-[3-(cyclopropylmethoxy)-4-(morpholine-4-carbonyl)phenyl]-2-methyl-1H-pyrrolo[2,3-c]pyridin-7-one]	8.30
C/C=C/Cn1cc(-c2cc(C(=O)NCc3cncnc3)ccc2OC)c2cc(C)[nH]c2c1=O [Example 120, 3-[6-[(E)-but-2-enyl]-2-methyl-7-oxo-1H-pyrrolo[2,3-c]pyridin-4-yl]-4-methoxy-N-(pyrimidin-5-ylmethyl)benzamide]	8.52
C/C=C/Cn1cc(-c2ccc(C(=O)N3CCC(C(=O)O)CC3)c(Cl)c2)c2cc(C)[nH]c2c1=O [Example 112, 1-[4-[6-[(E)-but-2-enyl]-2-methyl-7-oxo-1H-pyrrolo[2,3-c]pyridin-4-yl]-2-chloro-benzoyl]piperidine-4-carboxylic acid]	8.10
C/C=C/Cn1cc(-c2ncc(C(=O)N3CCOCC3)cc2OC)c2cc(C)[nH]c2c1=O [Example 103, 6-[(E)-but-2-enyl]-4-[3-methoxy-5-(morpholine-4-carbonyl)-2-pyridyl]-2-methyl-1H-pyrrolo[2,3-c]pyridin-7-one]	7.34
C/C=C/Cn1cc(-c2ccc(C(=O)N3CC(n4ccc(N)n4)C3)cc2)c2cc(C)[nH]c2c1=O [Example 118, 4-[4-[3-(3-aminopyrazol-1-yl)azetidine-1-carbonyl]phenyl]-6-[(E)-but-2-enyl]-2-methyl-1H-pyrrolo[2,3-c]pyridin-7-one]	8.05
CCCCn1cc(-c2cc(C(=O)N(C)C)ccc2OC)c2cc(C)[nH]c2c1=O [Example 87, 3-(6-butyl-2-methyl-7-oxo-1H-pyrrolo[2,3-c]pyridin-4-yl)-4-methoxy-N,N-dimethyl-benzamide]	7.18
C/C=C/Cn1cc(-c2ccc(C(=O)N3CC(n4ccc(N)n4)C3)c(Cl)c2)c2cc(C)[nH]c2c1=O [Example 117, (E)-4-(4-(3-(3-amino-1H-pyrazol-1-yl)azetidine-1-carbonyl)-3-chlorophenyl)-6-(but-2-en-1-yl)-2-methyl-1H-pyrrolo[2,3-c]pyridin-7(6H)-one]	8.30
CCCCn1cc(-c2ncc(C(=O)N3CCOCC3)cc2OC)c2cc(C)[nH]c2c1=O [Example 123, 6-butyl-4-[3-methoxy-5-(morpholine-4-carbonyl)-2-pyridyl]-2-methyl-1H-pyrrolo[2,3-c]pyridin-7-one]	6.68
C/C=C/Cn1cc(-c2cc(F)cc(C(=O)N(C)C)c2)c2cc[nH]c2c1=O [Example 19, 3-[6-[(E)-but-2-enyl]-7-oxo-1H-pyrrolo[2,3-c]pyridin-4-yl]-5-fluoro-N,N-dimethyl-benzamide]	7.03
C/C=C/Cn1cc(-c2ccc(C(=O)N3CCNCC3)c(Cl)c2)c2cc(C)[nH]c2c1=O [Example 116, (E)-6-(but-2-en-1-yl)-4-(3-chloro-4-(piperazine-1-carbonyl)phenyl)-2-methyl-1H-pyrrolo[2,3-c]pyridin-7(6H)-one]	8.40
CCCCn1cc(-c2cc(OC)c(C(=O)N3CCOCC3)cc2OC)c2cc(C)[nH]c2c1=O [Example 121, 6-butyl-4-[2,5-dimethoxy-4-(morpholine-4-carbonyl)phenyl]-2-methyl-1H-pyrrolo[2,3-c]pyridin-7-one]	7.77

Second part, the compound after the results:

pIC50	SMILES
7.41	C/C=C/Cn1cc(-c2cc(C(=O)N3CCCC3)ccc2OC)c2cc[nH]c2c1=O [Example 68, 6-[(E)-but-2-enyl]-4-[2-methoxy-5-(pyrrolidine-1-carbonyl)phenyl]-1H-pyrrolo[2,3-c]pyridin-7-one]
7.34	C/C=C/Cn1cc(-c2ccc(C(=O)N3CCCC3)c(Cl)c2)c2cc[nH]c2c1=O [Example 52, 6-[(E)-but-2-enyl]-4-[3-chloro-4-(pyrrolidine-1-carbonyl)phenyl]-1H-pyrrolo[2,3-c]pyridin-7-one]
7.46	C/C=C/Cn1cc(-c2cc(C(=O)NC)ccc2OC)c2cc[nH]c2c1=O [Example 67, 3-[6-[(E)-but-2-enyl]-7-oxo-1H-pyrrolo[2,3-c]pyridin-4-yl]-4-methoxy-N-methyl-benzamide]
7.19	CCCCn1cc(-c2cc(C(=O)N3CC4(CN(C(C)=O)C4)C3)ccc2OC)c2cc[nH]c2c1=O [Example 78, 4-[5-(2-acetyl-2,6-diazaspiro[3.3]heptane-6-carbonyl)-2-methoxy-phenyl]-6-butyl-1H-pyrrolo[2,3-c]pyridin-7-one]
8.00	C/C=C/Cn1cc(-c2ccc(C(=O)N3CCCC3)c(Cl)c2)c2cc(C)[nH]c2c1=O [Example 92, 6-[(E)-but-2-enyl]-4-[3-chloro-4-(pyrrolidine-1-carbonyl)phenyl]-2-methyl-1H-pyrrolo[2,3-c]pyridin-7-one]
6.29	C/C=C/Cn1cc(-c2cccc(C(N)=O)c2)c2cc[nH]c2c1=O [Example 30, 3-[6-[(E)-but-2-enyl]-7-oxo-1H-pyrrolo[2,3-c]pyridin-4-yl]benzamide]
6.89	C/C=C/Cn1cc(-c2cc(C(=O)N(C)C)ccc2F)c2cc[nH]c2c1=O [Example 41, 3-[6-[(E)-but-2-enyl]-7-oxo-1H-pyrrolo[2,3-c]pyridin-4-yl]-4-fluoro-N,N-dimethyl-benzamide]
7.89	C/C=C/Cn1cc(-c2ccc(C(=O)N3CCOCC3)c(Cl)c2)c2cc[nH]c2c1=O [Example 51, 6-[(E)-but-2-enyl]-4-[3-chloro-4-(morpholine-4-carbonyl)phenyl]-1H-pyrrolo[2,3-c]pyridin-7-one]
7.64	C/C=C/Cn1cc(-c2cc(C(=O)NCCN(C)C)ccc2OC)c2cc[nH]c2c1=O [Example 72, 3-[6-[(E)-but-2-enyl]-7-oxo-1H-pyrrolo[2,3-c]pyridin-4-yl]-N-[2-(dimethylamino)ethyl]-4-methoxy-benzamide]
7.25	C/C=C/Cn1cc(-c2cc(C(=O)N(C)C)ccc2OC)c2cc[nH]c2c1=O [Example 64, 3-[6-[(E)-but-2-enyl]-7-oxo-1H-pyrrolo[2,3-c]pyridin-4-yl]-4-methoxy-N,N-dimethyl-benzamide]
7.55	C/C=C/Cn1cc(-c2cc(C(=O)NCC(C)C)ccc2OC)c2cc[nH]c2c1=O [Example 70, 3-[6-[(E)-but-2-enyl]-7-oxo-1H-pyrrolo[2,3-c]pyridin-4-yl]-N-isobutyl-4-methoxy-benzamide]
7.46	C/C=C/Cn1cc(-c2cc(C(=O)NCCO)ccc2OC)c2cc[nH]c2c1=O [Example 73, 3-[6-[(E)-but-2-enyl]-7-oxo-1H-pyrrolo[2,3-c]pyridin-4-yl]-N-(2-hydroxyethyl)-4-methoxy-benzamide]

Source: patent US10183009B2, “Therapeutic compounds and uses thereof” (GENENTECH, INC., priority 2014, dated 2019)
